Measurements: patent US20160158236A1, “PHARMACEUTICAL COMPOSITION COMPRISING A TRPA1 ANTAGONIST AND A STEROID” (GLENMARK PHARMACEUTICALS S.A., priority 2011, published 2016)

Experiments:
[1] = test system: ovalbumin sensitized female Balb/C mice; experiment: Ovalbumin induced inflammation in ovalbumin sensitized mice (Compound 52 and prednisolone), BAL cell counts; type: in vivo; conditions: 1 mg/Kg p.o. (combination: 1 mg/Kg of each compound); BAL 24 hours after ovalbumin challenge
Protocol: Sensitized mice were randomly assigned to different treatment groups. […] Animals were administered Compound 52 orally 24 hrs before first ovalbumin challenge and 2 hrs before ovalbumin challenge from Day-11 to 13. Animals were administered Prednisolone orally 24 hrs before first ovalbumin challenge and 2 hrs before ovalbumin challenge from Day-11 to 13. The animals were divided into groups as per Table 2.
Broncho Alveolar Lavage (BAL) was performed at 24 hours after challenge with ovalbumin. Animals were anesthetized with an overdose of urethane, trachea was exposed and BAL was performed 4 times using 0.3 mL PBS. All aspirates of BAL were pooled and total number of cells determined using a hemocytometer. The BAL was centrifuged, and the cell pellet was used for preparation of smears. Slides were stained with Giemsa stain and a differential cell count of 500 cells based on standard morphology was performed manually.
Calculations: The total number of eosinophils in each BAL sample was calculated using the formula: […]
Percent inhibition of eosinophils was calculated using the following formula: […]

[2] = molecular target: T1, human TRPA1 receptor (Homo sapiens, UniProt O75762); experiment: Inhibition of AITC induced cellular uptake of radioactive calcium in human TRPA1 expressing CHO cells; type: cell-based; conditions: read-out: hTRPA1 IC50 values
T1 construct: expressed in transfected cells; host or cells: CHO cells
Protocol: Test compound solution is prepared in a suitable solvent. Human TRPA1 expressing CHO cells are grown in suitable medium. Cells are treated with test compounds followed by addition of AITC. Cells are washed, lysed and the radioactivity in the lysate is measured in Packard Top count after addition of liquid scintillant.
The concentration response curves for compounds are plotted as a % of maximal response obtained in the absence of test antagonist, and the IC50 values are calculated from such concentration response curve by nonlinear regression analysis using GraphPad PRISM software.

T1 sequence (O75762 whole entry): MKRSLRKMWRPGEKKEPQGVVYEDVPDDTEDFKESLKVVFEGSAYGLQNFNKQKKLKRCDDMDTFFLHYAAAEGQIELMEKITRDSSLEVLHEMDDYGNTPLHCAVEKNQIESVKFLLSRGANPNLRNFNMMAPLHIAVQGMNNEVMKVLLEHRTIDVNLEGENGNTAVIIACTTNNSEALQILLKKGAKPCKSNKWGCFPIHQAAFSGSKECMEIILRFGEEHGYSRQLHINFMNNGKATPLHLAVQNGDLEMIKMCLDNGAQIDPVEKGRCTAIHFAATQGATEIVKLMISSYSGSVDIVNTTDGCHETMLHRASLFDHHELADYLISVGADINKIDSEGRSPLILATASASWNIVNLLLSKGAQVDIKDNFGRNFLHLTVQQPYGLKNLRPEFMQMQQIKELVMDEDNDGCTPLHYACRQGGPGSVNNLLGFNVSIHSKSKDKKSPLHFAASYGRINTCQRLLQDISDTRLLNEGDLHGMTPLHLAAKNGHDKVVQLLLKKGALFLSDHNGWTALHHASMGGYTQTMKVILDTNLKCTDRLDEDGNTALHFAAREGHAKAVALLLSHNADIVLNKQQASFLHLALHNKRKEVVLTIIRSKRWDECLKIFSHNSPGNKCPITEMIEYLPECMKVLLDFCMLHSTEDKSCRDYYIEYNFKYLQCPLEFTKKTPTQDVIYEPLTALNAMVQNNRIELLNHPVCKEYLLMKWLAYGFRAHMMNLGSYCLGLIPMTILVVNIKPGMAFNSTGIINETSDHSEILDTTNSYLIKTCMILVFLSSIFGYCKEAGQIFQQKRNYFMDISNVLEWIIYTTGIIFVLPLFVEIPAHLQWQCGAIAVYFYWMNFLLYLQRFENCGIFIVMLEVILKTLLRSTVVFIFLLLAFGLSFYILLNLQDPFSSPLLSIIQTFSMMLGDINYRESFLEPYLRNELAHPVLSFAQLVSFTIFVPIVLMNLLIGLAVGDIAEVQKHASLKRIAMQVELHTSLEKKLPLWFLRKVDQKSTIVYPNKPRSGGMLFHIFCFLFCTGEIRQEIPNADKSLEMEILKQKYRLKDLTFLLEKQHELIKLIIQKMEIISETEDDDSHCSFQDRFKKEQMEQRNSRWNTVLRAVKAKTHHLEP

Cn1c(=O)c2c(CC(=O)Nc3nc(-c4ccc(F)c(C(F)(F)F)c4F)cs3)csc2n(C)c1=O [Compound 52]
% Inhibition of cell in BALf [1]: 10% | % Inhibition of eosinophils in BALf [1]: 21% | Total cell number in BALf [1]: 12.2 ± 0.5 | Total eosinophils in BALf [1]: 5.8 ± 0.5

C[C@]12C=CC(=O)C=C1CC[C@@H]1[C@@H]2[C@@H](O)C[C@@]2(C)[C@H]1CC[C@]2(O)C(=O)CO [Prednisolone, reference compound]
% Inhibition of cell in BALf [1]: 21% | % Inhibition of eosinophils in BALf [1]: 24% | Total cell number in BALf [1]: 10.8 ± 1.0 | Total eosinophils in BALf [1]: 5.6 ± 0.7

CC(C)C(N)C(=O)OCn1c(-c2ccc(F)c(C(F)(F)F)c2F)csc1=NC(=O)Cc1csc2c1c(=O)n(C)c(=O)n2C (stereo not drawn) [Compound 97]
IC50 [2]: 21.9 nM
